Activity calls are given as the source filed them. The calls are words filed in the database; no cut-off is given here.
Columns and labels:
Rattus norvegicus [1] = assay: Anticonvulsant activity in rat assessed as blockade against kindle motor-induced seizure at 10 mg/kg, ip by hippocampal kindling screen test; type: functional, organism-based; design: dose 10 mg/kg; settings: Hippocampus
Rattus norvegicus [2] = assay: Anticonvulsant activity against kindle motor-induced seizure in rat assessed as after discharge duration at 10 mg/kg, ip by hippocampal kindling screen test; type: functional, Hippocampus; settings: route intraperitoneal
Rattus norvegicus [3] = assay: Toxicity in rat assessed as motor impairment at 3 mg/kg, ip after 1 hr by rotarod paradigm test; type: organism-based; design: dose 3 mg/kg, route intraperitoneal; settings: in vivo
[4] = Therapeutic index, ratio of TD50 for ip dosed mouse to ED50 for protection against subcutaneous metrazole-induced seizure in ip dosed mouse; type: organism-based; settings: in vivo, read-out: Ratio TD50/ED50
Mus musculus [5] = assay: Anticonvulsant activity in ip dosed mouse assessed as protection against subcutaneous metrazole-induced seizure; type: functional
Rattus norvegicus [6] = assay: Anticonvulsant activity in po dosed rat assessed as protection against subcutaneous metrazole-induced seizure; type: functional
[7] = Therapeutic index, ratio of TD50 for po dosed rat to ED50 for protection against subcutaneous metrazole-induced seizure in po dosed rat; type: organism-based; settings: in vivo, read-out: Ratio TD50/ED50
Mus musculus [8] = assay: Anticonvulsant activity in ip dosed mouse assessed as protection against maximal electroshock-induced seizure; type: functional
Rattus norvegicus [9] = assay: Anticonvulsant activity in po dosed rat assessed as protection against maximal electroshock-induced seizure; type: functional
Rattus norvegicus [10] = assay: Toxicity in rat assessed as motor impairment at 50 mg/kg, po after 0.5 hrs by rotarod paradigm test; type: organism-based; design: dose 50 mg/kg, route oral; settings: in vivo
Rattus norvegicus [11] = assay: Anticonvulsant activity in rat assessed as protection against maximal electroshock-induced seizure at 30 mg/kg, ip and po after 4 hrs; type: functional, organism-based; design: dose 30 mg/kg
Rattus norvegicus [12] = assay: Anticonvulsant activity in rat assessed as protection against subcutaneous metrazole-induced seizure at 15 mg/kg, po after 4 hrs; type: functional
Rattus norvegicus [13] = assay: Toxicity in rat assessed as motor impairment at 50 mg/kg, po after 4 hrs by rotarod paradigm test; type: organism-based; design: dose 50 mg/kg, route oral; settings: in vivo
Rattus norvegicus [14] = assay: Anticonvulsant activity in rat assessed as protection against subcutaneous metrazole-induced seizure at 50 mg/kg, po after 0.5 hrs; type: functional
Rattus norvegicus [15] = assay: Anticonvulsant activity in rat assessed as protection against maximal electroshock-induced seizure at 30 mg/kg, ip and po after 0.5 hrs; type: functional, organism-based; design: dose 30 mg/kg
[16] = Toxicity in ip dosed mouse assessed as minimal muscular or neurological impairment by rotarod paradigm test; type: organism-based; settings: in vivo
[17] = Toxicity in po dosed rat assessed as minimal muscular or neurological impairment by rotarod paradigm test; type: organism-based; settings: in vivo
Rattus norvegicus [18] = assay: Toxicity in rat assessed as motor impairment at 30 mg/kg, ip after 1 hr by rotarod paradigm test; type: organism-based; design: dose 30 mg/kg, route intraperitoneal; settings: in vivo
[19] = target: GABA-A receptor; alpha-5/beta-3/gamma-2 (Homo sapiens) (UniProt P18507+P28472+P31644); assay: Activity at GABAA alpha-5-beta-3-gamma-2 receptor expressed in oocytes assessed as stimulation of GABA-induced current at 1 uM relative to control; type: cell-based; settings: Oocyte
Rattus norvegicus [20] = assay: Toxicity in rat assessed as motor impairment at 50 mg/kg, ip after 0.5 hrs by rotarod paradigm test; type: organism-based; design: dose 50 mg/kg, route intraperitoneal; settings: in vivo
[21] = target: GABA-A receptor; alpha-1/beta-3/gamma-2 (Homo sapiens) (UniProt P14867+P18507+P28472); assay: Activity at GABAA alpha-1-beta-3-gamma-2 receptor expressed in oocytes assessed as stimulation of GABA-induced current at 1 uM relative to control; type: cell-based; settings: Oocyte
Rattus norvegicus [22] = assay: Anticonvulsant activity in rat assessed as blockade against kindle motor-induced seizure at 100 mg/kg, ip by hippocampal kindling screen test; type: functional, organism-based; design: dose 100 mg/kg; settings: Hippocampus
Rattus norvegicus [23] = assay: Toxicity in rat assessed as sedative effect at 500 mg/kg, po; type: organism-based; design: dose 500 mg/kg, route oral; settings: in vivo
Mus musculus [24] = assay: Toxicity in mouse assessed as motor impairment at 100 mg/kg, ip after 0.5 hrs by rotarod paradigm test; type: organism-based; design: dose 100 mg/kg, route intraperitoneal; settings: in vivo
Mus musculus [25] = assay: Toxicity in mouse assessed as motor impairment at 100 mg/kg, ip after 4 hrs by rotarod paradigm test; type: organism-based; design: dose 100 mg/kg, route intraperitoneal; settings: in vivo
Rattus norvegicus [26] = assay: Anticonvulsant activity in rat assessed as protection against subcutaneous metrazole-induced seizure at 50 mg/kg, ip after 0.5 hrs; type: functional
[27] = target: GABA-A receptor; alpha-2/beta-3/gamma-2 (Homo sapiens) (UniProt P18507+P28472+P47869); assay: Activity at GABAA alpha-2-beta-3-gamma-2 receptor expressed in oocytes assessed as stimulation of GABA-induced current at 1 uM relative to control; type: cell-based; settings: Oocyte
Mus musculus [28] = assay: Anticonvulsant activity in mouse assessed as protection against maximal electroshock-induced seizure at 100 mg/kg, ip after 0.5 hrs; type: functional, organism-based; design: dose 100 mg/kg
Rattus norvegicus [29] = assay: Anticonvulsant activity against kindle motor-induced seizure in rat assessed as after discharge duration at 100 mg/kg, ip by hippocampal kindling screen test; type: functional, Hippocampus; settings: route intraperitoneal
Rattus norvegicus [30] = assay: Toxicity in rat assessed as motor impairment at 50 mg/kg, ip after 1 hr by rotarod paradigm test; type: organism-based; design: dose 50 mg/kg, route intraperitoneal; settings: in vivo
Mus musculus [31] = assay: Anticonvulsant activity in mouse assessed as protection against subcutaneous metrazole-induced seizure at 100 mg/kg, ip after 4 hrs; type: functional, organism-based; design: dose 100 mg/kg
Rattus norvegicus [32] = assay: Anticonvulsant activity in rat assessed as protection against subcutaneous metrazole-induced seizure at 50 mg/kg, ip after 4 hrs; type: functional
Mus musculus [33] = assay: Anticonvulsant activity in mouse assessed as protection against maximal electroshock-induced seizure at 100 mg/kg, ip after 4 hrs; type: functional, organism-based; design: dose 100 mg/kg
[34] = target: T1, Gamma-aminobutyric acid receptor subunit alpha-3 (Homo sapiens) (UniProt P34903); assay: Activity at GABAA alpha-3-beta-3-gamma-2 receptor expressed in oocytes assessed as stimulation of GABA-induced current at 1 uM relative to control; type: cell-based; settings: Oocyte
T1 sequence (whole entry): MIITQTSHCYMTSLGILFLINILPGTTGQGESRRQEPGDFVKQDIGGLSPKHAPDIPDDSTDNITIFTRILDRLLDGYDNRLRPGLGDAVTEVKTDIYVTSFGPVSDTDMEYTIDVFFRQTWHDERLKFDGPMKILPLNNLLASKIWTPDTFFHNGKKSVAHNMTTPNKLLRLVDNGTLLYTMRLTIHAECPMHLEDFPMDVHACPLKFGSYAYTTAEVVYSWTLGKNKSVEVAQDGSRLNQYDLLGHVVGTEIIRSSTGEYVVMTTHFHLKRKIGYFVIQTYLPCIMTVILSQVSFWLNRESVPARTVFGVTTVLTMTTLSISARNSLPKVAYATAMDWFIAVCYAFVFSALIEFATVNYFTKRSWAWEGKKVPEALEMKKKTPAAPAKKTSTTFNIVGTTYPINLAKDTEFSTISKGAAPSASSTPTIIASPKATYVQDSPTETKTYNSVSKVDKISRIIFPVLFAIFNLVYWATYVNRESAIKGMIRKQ

Rattus norvegicus [35] = assay: Toxicity in rat assessed as motor impairment at 50 mg/kg, ip after 4 hrs by rotarod paradigm test; type: organism-based; design: dose 50 mg/kg, route intraperitoneal; settings: in vivo
Rattus norvegicus [36] = assay: Toxicity in rat assessed as motor impairment at 50 mg/kg, po after 1 hr by rotarod paradigm test; type: organism-based; design: dose 50 mg/kg, route oral; settings: in vivo
Rattus norvegicus [37] = assay: Anticonvulsant activity in rat assessed as protection against subcutaneous metrazole-induced seizure at 50 mg/kg, po after 4 hrs; type: functional, organism-based; design: dose 50 mg/kg
Rattus norvegicus [38] = assay: Anticonvulsant activity in rat assessed as blockade against kindle motor-induced seizure at 50 mg/kg, ip by hippocampal kindling screen test; type: functional, organism-based; design: dose 50 mg/kg; settings: Hippocampus
Rattus norvegicus [39] = assay: Anticonvulsant activity against kindle motor-induced seizure in rat assessed as after discharge duration at 50 mg/kg, ip by hippocampal kindling screen test; type: functional, Hippocampus; settings: route intraperitoneal

| SMILES | selectivity ratio [4] | ED50 (Mus musculus [5]) [mg/kg] | ED50 (Rattus norvegicus [6]) [mg/kg] | selectivity ratio [7] | ED50 (Mus musculus [8]) [mg/kg] | ED50 (Rattus norvegicus [9]) [mg/kg] | TD50 [16] [mg/kg] | TD50 [17] [mg/kg] | Activity [19] [%] | Activity (Rattus norvegicus [20]) | Activity [21] [%] | Activity [27] [%] | Activity [34] [%] | also measured |
| --- | --- | --- | --- | --- | --- | --- | --- | --- | --- | --- | --- | --- | --- | --- |
| C#Cc1ccc2c(c1)C(c1ccccc1Cl)=NCc1nnc(C)n1-2 | 2.8 | 1.03 | 1.58 | > 105 | > 6 | > 150 | – | – | – | – | – | – | – | Activity (Rattus norvegicus [1]): Active; Activity (Rattus norvegicus [2]): 92 s; Activity (Rattus norvegicus [3]): Non-toxic; Activity (Rattus norvegicus [10]): Non-toxic; Activity (Rattus norvegicus [11]): inactive; Activity (Rattus norvegicus [12]): 50%; Activity (Rattus norvegicus [13]): Non-toxic; Activity (Rattus norvegicus [14]): Active; Activity (Rattus norvegicus [15]): inactive |
| O=C1CN=C(c2ccccc2Cl)c2cc([N+](=O)[O-])ccc2N1 [CLONAZEPAM] | 13 | 0.02 | 0.61 | 3.9 | 25.6 | 7.86 | 0.26 | 2.38 | – | – | – | – | – | – |
| C#Cc1ccc2c(c1)C(c1ccccn1)=NCc1c(C(=O)OCC)ncn1-2 | > 30.2 | 16.3 | 98.5 | > 5 | > 300 | > 250 | > 500 | > 500 | 174 | Non-toxic | 167 | 313 | 346 | Activity (Rattus norvegicus [18]): Non-toxic; Activity (Rattus norvegicus [22]): Active; Activity (Rattus norvegicus [23]): Non-toxic; Activity (Mus musculus [24]): Non-toxic; Activity (Mus musculus [25]): Non-toxic; Activity (Rattus norvegicus [26]): 88%; Activity (Mus musculus [28]): inactive; Activity (Rattus norvegicus [29]): 59 s; Activity (Rattus norvegicus [30]): Non-toxic; Activity (Mus musculus [31]): inactive; Activity (Rattus norvegicus [32]): 63%; Activity (Mus musculus [33]): inactive; Activity (Rattus norvegicus [11]): inactive; Activity (Rattus norvegicus [14]): 100% |
| CCOC(=O)c1ncn2c1CN=C(c1ccccc1F)c1cc(I)ccc1-2 | – | – | – | – | – | – | – | – | – | Non-toxic | – | – | – | Activity (Rattus norvegicus [35]): Non-toxic; Activity (Rattus norvegicus [36]): Non-toxic; Activity (Rattus norvegicus [26]): inactive; Activity (Rattus norvegicus [32]): inactive; Activity (Rattus norvegicus [10]): Non-toxic |
| C#Cc1ccc2c(c1)C(c1ccccc1F)=NCc1c(C(=O)OCC)ncn1-2 | > 44 | 8.87 | 23.7 | > 21.1 | > 200 | > 250 | > 400 | > 500 | 246 | Non-toxic | 248 | 410 | 596 | Activity (Rattus norvegicus [18]): Non-toxic; Activity (Rattus norvegicus [35]): Non-toxic; Activity (Rattus norvegicus [37]): Active; Activity (Rattus norvegicus [38]): Active; Activity (Rattus norvegicus [39]): 38 s; Activity (Rattus norvegicus [15]): inactive |
| NC(=O)N1c2ccccc2C=Cc2ccccc21 [CARBAMAZEPINE] | – | > 50 | > 250 | – | 7.81 | 5.35 | – | – | – | – | – | – | – | – |
| CN1C(=O)CN=C(c2ccccc2)c2cc(Cl)ccc21 | – | – | – | – | – | – | – | – | 420 | – | 345 | 508 | 776 | – |
| O=C1NC(=O)C(c2ccccc2)(c2ccccc2)N1 [PHENYTOIN] | < 0.82 | > 50 | > 500 | 2 | 5.64 | 28.1 | – | > 1000 | – | – | – | – | – | – |

— ChEMBL document CHEMBL1153371, “Antiseizure activity of novel gamma-aminobutyric acid (A) receptor subtype-selective benzodiazepine analogues in mice and rat models” (J Med Chem, 2009)
